According to patent publication US5198445A, “Composition and use of substituted 3-thio-2-propynenitriles as industrial antimicrobials” (The Dow Chemical Company, priority 1992, dated 1993):
Values after ≈ are worked out from the molar mass of the structure shown. Where two headings read alike, the source gives them in different places.

Columns and labels:
[1] = Antimicrobial activity of decomposition product; format: cell-based
Source text: It has also been discovered that the compounds of the present invention may degrade at a pH of 7 or above over an extended time period to compounds which are less antimicrobially active than the original compounds of the present invention.

Aspergillus niger (An) = assay: MIC in malt yeast agar, Aspergillus niger; format: cell-based, Aspergillus niger ATCC 16404; details: read-out: Minimum Inhibitory Concentration, An
Method: (§1) The minimum inhibitory concentration (MIC) for the compounds listed in Table I is determined for 9 bacteria, using nutrient agar, and 7 yeast and fungi, using malt yeast agar. A one percent solution of the test compound is prepared in a mixture of acetone and water. Nutrient agar is prepared at pH 6.8, representing a neutral medium, and at pH 8.2, representing an alkaline medium. The nutrient agars are prepared by adding 23 g of nutrient agar to one-liter of deionized water. In addition, the alkaline medium is prepared by adjusting a 0.04M solution of N-[tris-(hydroxymethyl)methyl]-glycine buffered deionized water with concentrated sodium hydroxide to a pH of […]. Malt yeast agar is prepared by adding 3 g yeast extract and 45 g malt agar per liter of deionized water. The specific agar is dispensed in 30 ml aliquots into 25×200 mm test tubes, capped and autoclaved for 15 minutes at 115° C. The test tubes containing the agar are cooled in a water bath until the temperature of the agar is 48° C. Then, an appropriate amount of the one percent solution of the test compound is added (except in the controls where no compound is added) to the respective test tubes so that the final concentrations are 500, 250, 100, 50, 25, 10, 5, 2.5, 1.0 and zero parts per million of the test compound in the agar, thus having a known concentration of test compound dispersed therein. The contents of the test tubes are then transferred to respective petri plates. After drying for 24 hours, the petri plates containing nutrient agar are inoculated with bacteria and those containing malt yeast agar are inoculated with yeast and fungi.
(§2) The inoculation with the yeast and fungi is accomplished as follows. Cultures of yeast and fungi are incubated for seven days on malt yeast agar at 30° C. These cultures are used to prepare suspensions by the following procedure. A suspension of each organism is prepared by adding 10 ml of sterile saline and 10 microliters of octylphenoxy polyethoxy ethanol (TRITON® X-100, a trademark of Rohm & Haas Company) to the agar slant of yeast or fungi. The sterile saline/octylphenoxy polyethoxy ethanol solution is then agitated with a sterile swab to suspend the microorganism grown on the slant. Each resulting suspension is diluted into sterile saline (1 part suspension: 9 parts sterile saline). Aliquots of these dilutions are placed in individual wells of Steer's Replicator and petri plates inoculated as previously described. The petri plates are incubated at 30° C. and read after 48 hours for yeast and 72 hours for fungi.
(§3) Table II lists the bacteria, yeast and fungi used in the MIC test described above along with their respective American Type Culture Collection (ATCC) identification numbers.
(§4) The following MIC and MEC antimicrobial tests, whose results are shown in Tables XIII-XVII, are performed using the same methods as described hereinabove.

Escherichia coli (Ec) = assay: MIC in nutrient agar, Escherichia coli; format: cell-based, Escherichia coli ATCC 11229; details: Escherichia coli
Method: as §1
(§5) The inoculation with bacteria is accomplished by using the following procedure. Twenty-four hour-cultures of each of the bacteria are prepared by incubating the respective bacteria in tubes containing nutrient broth for 24 hours at 30° C. in a shaker. Dilutions of each of the 24 hour-cultures are made so that nine separate suspensions (one for each of the nine test bacteria) are made, each containing 10^8 colony forming units (CFU) per ml of suspension of a particular bacteria. Aliquots of 0.3 ml of each of the bacterial suspensions are used to fill the individual wells of Steer's Replicator. For each microbial suspension, 0.3 ml was used to fill three wells (i.e., three wells of 0.3 ml each) so that for the nine different bacteria, 27 wells are filled. The Steer's Replicator is then used to inoculate both the neutral and alkaline pH nutrient agar petri plates.
(§6) The inoculated petri plates are incubated at 30° C. for 48 hours and then read to determine if the test compound which is incorporated into the agar prevented growth of the respective bacteria.
as §3, §4

Candida albicans (Ca) = assay: MIC in malt yeast agar, Candida albicans; format: cell-based, Candida albicans ATCC 10231; details: read-out: Minimum Inhibitory Concentration, Ca
Method: as §1, §2, §3, §4

[2] = system: Enterobacter aerogenes (Ea); assay: MIC in nutrient agar, Enterobacter aerogenes; format: cell-based, Enterobacter aerogenes ATCC 13048; details: Klebsiella aerogenes
Method: as §1, §5, §6, §3, §4

[3] = system: Penicillium chrysogenum (Pc); assay: MIC in malt yeast agar, Penicillium chrysogenum; format: cell-based, Penicillium chrysogenum ATCC 9480; details: read-out: Minimum Inhibitory Concentration, Pc
Method: as §1, §2, §3, §4

Fusarium oxysporum (Fo) = assay: MIC in malt yeast agar, Fusarium oxysporum; format: cell-based, Fusarium oxysporum ATCC 48112; details: read-out: Minimum Inhibitory Concentration, Fo
Method: as §1, §2, §3, §4

[4] = system: Aureobasidium pullulan (Ap); assay: MIC in malt yeast agar, Aureobasidium pullulan; format: cell-based, Aureobasidium pullulan ATCC 16622; details: read-out: Minimum Inhibitory Concentration, Ap
Method: as §1, §2, §3, §4

[5] = system: Klebsiella pneumoniae (Kp); assay: MIC in nutrient agar, Klebsiella pneumoniae; format: cell-based, Klebsiella pneumoniae ATCC 8308
Method: as §1, §5, §6, §3, §4

Proteus vulgaris (Pv) = assay: MIC in nutrient agar, Proteus vulgaris; format: cell-based, Proteus vulgaris ATCC 881
Method: as §1, §5, §6, §3, §4

[6] = system: Pseudomonas aeruginosa (PRD-10); assay: MIC in nutrient agar, Pseudomonas aeruginosa PRD-10; format: cell-based, Pseudomonas aeruginosa ATCC 15442; details: Pseudomonas aeruginosa
Method: as §1, §5, §6, §3, §4

[7] = system: Salmonella choleraesuis (Sc); assay: MIC in nutrient agar, Salmonella choleraesuis; format: cell-based, Salmonella choleraesuis ATCC 10708; details: Salmonella enterica, CHOLERAESUIS
Method: as §1, §5, §6, §3, §4

[8] = system: Staphylococcus aureus (Sa); assay: MIC in nutrient agar, Staphylococcus aureus; format: cell-based, Staphylococcus aureus ATCC 6538; details: Staphylococcus aureus
Method: as §1, §5, §6, §3, §4

Trichoderma viride (Tv) = assay: MIC in malt yeast agar, Trichoderma viride; format: cell-based, Trichoderma viride ATCC 8678; details: read-out: Minimum Inhibitory Concentration, Tv
Method: as §1, §2, §3, §4

[9] = system: Pseudomonas aeruginosa (Pa); assay: MIC in nutrient agar, Pseudomonas aeruginosa; format: cell-based, Pseudomonas aeruginosa ATCC 10145
Method: as §1, §5, §6, §3, §4

[10] = system: Saccharomyces cerevisiae (Sc); assay: MIC in malt yeast agar, Saccharomyces cerevisiae; format: cell-based, Saccharomyces cerevisiae ATCC 4105; details: read-out: Minimum Inhibitory Concentration, Sc
Method: as §1, §2, §3, §4

Bacillus subtilis (Bs) = assay: MIC in nutrient agar, Bacillus subtilis; format: cell-based, Bacillus subtilis ATCC 8473; details: Bacillus subtilis
Method: as §1, §5, §6, §3, §4

CSC(=CC#N)SC [3,3-bis(methylthio)propenenitrile]
antimicrobial activity of decomposition product [1]: virtually inactive as an antimicrobial

CS/C=C(/Cl)C#N [Compound H, E isomer of 2-chloro-3-(methylthio)-2-propenenitrile]
MIC (Aspergillus niger (An)): 250 µg/mL (≈ 1.87 mM) | MIC (Escherichia coli (Ec); pH 6.8, read-out: Minimum Inhibitory Concentration, Ec): > 500 µg/mL | MIC (Escherichia coli (Ec); pH 8.2, read-out: Minimum Inhibitory Concentration, Ec): 500 µg/mL (≈ 3.74 mM) | MIC (Candida albicans (Ca)): 250 µg/mL (≈ 1.87 mM) | MIC ([2]; pH 6.8, read-out: Minimum Inhibitory Concentration, Ea): > 500 µg/mL | MIC ([2]; pH 8.2, read-out: Minimum Inhibitory Concentration, Ea): 500 µg/mL (≈ 3.74 mM) | MIC [3]: 100 µg/mL (≈ 0.748 mM) | MIC (Fusarium oxysporum (Fo)): 100 µg/mL (≈ 0.748 mM) | MIC [4]: 250 µg/mL (≈ 1.87 mM) | MIC ([5]; pH 6.8, read-out: Minimum Inhibitory Concentration, Kp): > 500 µg/mL | MIC ([5]; pH 8.2, read-out: Minimum Inhibitory Concentration, Kp): 500 µg/mL (≈ 3.74 mM) | MIC (Proteus vulgaris (Pv); pH 6.8, read-out: Minimum Inhibitory Concentration, Pv): > 500 µg/mL | MIC (Proteus vulgaris (Pv); pH 8.2, read-out: Minimum Inhibitory Concentration, Pv): 250 µg/mL (≈ 1.87 mM) | MIC ([6]; pH 6.8, read-out: Minimum Inhibitory Concentration, PRD): > 500 µg/mL | MIC ([6]; pH 8.2, read-out: Minimum Inhibitory Concentration, PRD): 250 µg/mL (≈ 1.87 mM) | MIC ([7]; pH 6.8, read-out: Minimum Inhibitory Concentration, Sc): > 500 µg/mL | MIC ([7]; pH 8.2, read-out: Minimum Inhibitory Concentration, Sc): 500 µg/mL (≈ 3.74 mM) | MIC ([8]; pH 6.8, read-out: Minimum Inhibitory Concentration, Sa): > 500 µg/mL | MIC ([8]; pH 8.2, read-out: Minimum Inhibitory Concentration, Sa): 500 µg/mL (≈ 3.74 mM) | MIC (Trichoderma viride (Tv)): 250 µg/mL (≈ 1.87 mM) | MIC ([9]; pH 6.8, read-out: Minimum Inhibitory Concentration, Pa): > 500 µg/mL | MIC ([9]; pH 8.2, read-out: Minimum Inhibitory Concentration, Pa): 250 µg/mL (≈ 1.87 mM) | MIC [10]: 500 µg/mL (≈ 3.74 mM) | MIC (Bacillus subtilis (Bs); pH 6.8, read-out: Minimum Inhibitory Concentration, Bs): > 500 µg/mL | MIC (Bacillus subtilis (Bs); pH 8.2, read-out: Minimum Inhibitory Concentration, Bs): 500 µg/mL (≈ 3.74 mM)
